According to article PMC11249646, “Small-Molecule Disruptors of the Interaction between Calcium- and Integrin-Binding Protein 1 and Integrin αIIbβ3 as Novel Antiplatelet Agents” (ACS Pharmacology & Translational Science, 2024):

target: T1, CIB1 and αIIb interaction (CIB1-GST : F-αIIb peptide) (Homo sapiens, UniProt Q99828); assay: FP assay, 1536-well qHTS format (primary and confirmatory screen); format: binding; settings: Table S3, confirmatory screen, YES/NO call
T1 construct: made in house; host or cells: BL-21 plus RIL cells (E. coli)
T1 sequence (Q99828 1-191): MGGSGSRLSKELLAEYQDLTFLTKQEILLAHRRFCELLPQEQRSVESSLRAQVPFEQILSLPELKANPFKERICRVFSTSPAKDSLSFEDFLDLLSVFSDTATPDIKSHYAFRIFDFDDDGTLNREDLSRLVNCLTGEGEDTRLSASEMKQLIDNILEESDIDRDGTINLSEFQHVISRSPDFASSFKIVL

Row | Confirm? (confirmatory screen) | Structure (SMILES)
1 | YES | CO[C@@H]1C(N(C)C(=O)c2ccccc2)C[C@H]2O[C@]1(C)n1c3ccccc3c3c4c(c5c6ccccc6n2c5c31)C(=O)NC4=O (stereo partly drawn) [NCGC00345083-01]
2 | YES | Nc1cccc2c1C(=O)N(C1CCC(=O)NC1=O)C2=O (stereo not drawn) [NCGC00346551-01]
3 | YES | CN1CCCN(C(=O)c2cccc(-c3ccc(/C=C4/C(=O)Nc5ccc(Cl)cc54)o3)c2)CC1 [NCGC00346935-01]

Row | Structure (SMILES) | Confirm? (confirmatory screen)
4 | O=C(O)C(F)(F)F.O=S(=O)(Nc1ccc(N2CCNCC2)cc1)c1ccc(NCc2ccc(Br)cc2O)cc1 [NCGC00343874-01] | YES
5 | CCCCCCCCn1cc(CC(N)=O)c2cc(-c3cccc(C)c3)ccc21.O=C(O)C(F)(F)F [NCGC00348156-02] | YES

same assay, conditions: Table S3, confirmatory screen, qHTS curve class; a negative sign marks inhibitory curves

Row | Curve Class (confirmatory screen) | Structure (SMILES)
6 | -1.2 | CO[C@@H]1C(N(C)C(=O)c2ccccc2)C[C@H]2O[C@]1(C)n1c3ccccc3c3c4c(c5c6ccccc6n2c5c31)C(=O)NC4=O (stereo partly drawn) [NCGC00345083-01]
7 | -2.2 | Nc1cccc2c1C(=O)N(C1CCC(=O)NC1=O)C2=O (stereo not drawn) [NCGC00346551-01]
8 | -1.3 | CN1CCCN(C(=O)c2cccc(-c3ccc(/C=C4/C(=O)Nc5ccc(Cl)cc54)o3)c2)CC1 [NCGC00346935-01]

Row | Structure (SMILES) | Curve Class (confirmatory screen)
9 | O=C(O)C(F)(F)F.O=S(=O)(Nc1ccc(N2CCNCC2)cc1)c1ccc(NCc2ccc(Br)cc2O)cc1 [NCGC00343874-01] | -2.4
10 | CCCCCCCCn1cc(CC(N)=O)c2cc(-c3cccc(C)c3)ccc21.O=C(O)C(F)(F)F [NCGC00348156-02] | -2.4

same assay, conditions: Table S3, confirmatory screen; negative = inhibition

Row | Efficacy (%) (confirmatory screen) | Structure (SMILES)
11 | -78 | CO[C@@H]1C(N(C)C(=O)c2ccccc2)C[C@H]2O[C@]1(C)n1c3ccccc3c3c4c(c5c6ccccc6n2c5c31)C(=O)NC4=O (stereo partly drawn) [NCGC00345083-01]
12 | -78 | Nc1cccc2c1C(=O)N(C1CCC(=O)NC1=O)C2=O (stereo not drawn) [NCGC00346551-01]
13 | -102 | CN1CCCN(C(=O)c2cccc(-c3ccc(/C=C4/C(=O)Nc5ccc(Cl)cc54)o3)c2)CC1 [NCGC00346935-01]

Row | Structure (SMILES) | Efficacy (%) (confirmatory screen)
14 | O=C(O)C(F)(F)F.O=S(=O)(Nc1ccc(N2CCNCC2)cc1)c1ccc(NCc2ccc(Br)cc2O)cc1 [NCGC00343874-01] | -41
15 | CCCCCCCCn1cc(CC(N)=O)c2cc(-c3cccc(C)c3)ccc21.O=C(O)C(F)(F)F [NCGC00348156-02] | -95

same assay, conditions: Table S3, confirmatory screen; read-out: IC50 [μM] (confirmatory screen)

Row | IC50 [µM] | Structure (SMILES)
16 | 14.1 | CO[C@@H]1C(N(C)C(=O)c2ccccc2)C[C@H]2O[C@]1(C)n1c3ccccc3c3c4c(c5c6ccccc6n2c5c31)C(=O)NC4=O (stereo partly drawn) [NCGC00345083-01]
17 | 50.1 | Nc1cccc2c1C(=O)N(C1CCC(=O)NC1=O)C2=O (stereo not drawn) [NCGC00346551-01]
18 | 35.5 | CN1CCCN(C(=O)c2cccc(-c3ccc(/C=C4/C(=O)Nc5ccc(Cl)cc54)o3)c2)CC1 [NCGC00346935-01]

Row | Structure (SMILES) | IC50 [µM]
19 | CCCCCCCCn1cc(CC(N)=O)c2cc(-c3cccc(C)c3)ccc21.O=C(O)C(F)(F)F [NCGC00348156-02] | 44.7

same assay, conditions: qHTS FP screen hits, Table S2; negative = inhibition

Row | Structure (SMILES) | Efficacy (%)
20 | CN1CCCN(C(=O)c2cccc(-c3ccc(/C=C4/C(=O)Nc5ccc(Cl)cc54)o3)c2)CC1 [NCGC00346935-01] | -37
21 | CCCCCCCCn1cc(CC(N)=O)c2cc(-c3cccc(C)c3)ccc21.O=C(O)C(F)(F)F [NCGC00348156-02] | -74

same assay, conditions: qHTS FP screen hits, Table S2; one class per curve where COUNT > 1; negative sign = inhibitory curve

Row | Curve Class | Structure (SMILES)
22 | -2.2 | CN1CCCN(C(=O)c2cccc(-c3ccc(/C=C4/C(=O)Nc5ccc(Cl)cc54)o3)c2)CC1 [NCGC00346935-01]

same assay, conditions: qHTS FP screen hits, Table S2; read-out: IC50

Row | Structure (SMILES) | IC50 [µM]
23 | CN1CCCN(C(=O)c2cccc(-c3ccc(/C=C4/C(=O)Nc5ccc(Cl)cc54)o3)c2)CC1 [NCGC00346935-01] | 15.2
24 | CCCCCCCCn1cc(CC(N)=O)c2cc(-c3cccc(C)c3)ccc21.O=C(O)C(F)(F)F [NCGC00348156-02] | 50.1

same assay, conditions: qHTS primary screen hits, Table S2; negative = inhibition

Row | Efficacy (%) | Structure (SMILES)
25 | -67 | CO[C@@H]1C(N(C)C(=O)c2ccccc2)C[C@H]2O[C@]1(C)n1c3ccccc3c3c4c(c5c6ccccc6n2c5c31)C(=O)NC4=O (stereo partly drawn) [NCGC00345083-01]
26 | -43 | Nc1cccc2c1C(=O)N(C1CCC(=O)NC1=O)C2=O (stereo not drawn) [NCGC00346551-01]

Row | Structure (SMILES) | Efficacy (%)
27 | O=C(O)C(F)(F)F.O=S(=O)(Nc1ccc(N2CCNCC2)cc1)c1ccc(NCc2ccc(Br)cc2O)cc1 [NCGC00343874-01] | -76

same assay, conditions: qHTS primary screen hits, Table S2; negative sign = inhibitory curve; several classes where COUNT > 1

Row | Curve Class | Structure (SMILES)
28 | -2.2 | CO[C@@H]1C(N(C)C(=O)c2ccccc2)C[C@H]2O[C@]1(C)n1c3ccccc3c3c4c(c5c6ccccc6n2c5c31)C(=O)NC4=O (stereo partly drawn) [NCGC00345083-01]
29 | -2.2 | Nc1cccc2c1C(=O)N(C1CCC(=O)NC1=O)C2=O (stereo not drawn) [NCGC00346551-01]

Row | Structure (SMILES) | Curve Class
30 | O=C(O)C(F)(F)F.O=S(=O)(Nc1ccc(N2CCNCC2)cc1)c1ccc(NCc2ccc(Br)cc2O)cc1 [NCGC00343874-01] | -2.2

same assay, conditions: qHTS primary screen hits, Table S2; read-out: IC50

Row | IC50 [µM] | Structure (SMILES)
31 | 19.2 | CO[C@@H]1C(N(C)C(=O)c2ccccc2)C[C@H]2O[C@]1(C)n1c3ccccc3c3c4c(c5c6ccccc6n2c5c31)C(=O)NC4=O (stereo partly drawn) [NCGC00345083-01]
32 | 21.5 | Nc1cccc2c1C(=O)N(C1CCC(=O)NC1=O)C2=O (stereo not drawn) [NCGC00346551-01]

Row | Structure (SMILES) | IC50 [µM]
33 | O=C(O)C(F)(F)F.O=S(=O)(Nc1ccc(N2CCNCC2)cc1)c1ccc(NCc2ccc(Br)cc2O)cc1 [NCGC00343874-01] | 79.4

target: T2, GST-CIB1 : F-scrambled peptide (Homo sapiens, UniProt Q99828); assay: FP scrambled-peptide counter screen, 1536-well format; format: binding; settings: Table S3, counterscreen, qHTS curve class; a negative sign marks inhibitory curves
T2 construct: made in house; host or cells: BL-21 plus RIL cells (E. coli)
T2 sequence (Q99828 1-191): T1 sequence (Q99828 1-191)

Row | Curve Class (counterscreen) | Structure (SMILES)
34 | -1.1 | CO[C@@H]1C(N(C)C(=O)c2ccccc2)C[C@H]2O[C@]1(C)n1c3ccccc3c3c4c(c5c6ccccc6n2c5c31)C(=O)NC4=O (stereo partly drawn) [NCGC00345083-01]
35 | -2.1 | Nc1cccc2c1C(=O)N(C1CCC(=O)NC1=O)C2=O (stereo not drawn) [NCGC00346551-01]
36 | -1.1 | CN1CCCN(C(=O)c2cccc(-c3ccc(/C=C4/C(=O)Nc5ccc(Cl)cc54)o3)c2)CC1 [NCGC00346935-01]

Row | Structure (SMILES) | Curve Class (counterscreen)
37 | O=C(O)C(F)(F)F.O=S(=O)(Nc1ccc(N2CCNCC2)cc1)c1ccc(NCc2ccc(Br)cc2O)cc1 [NCGC00343874-01] | -2.2
38 | CCCCCCCCn1cc(CC(N)=O)c2cc(-c3cccc(C)c3)ccc21.O=C(O)C(F)(F)F [NCGC00348156-02] | -2.1

same assay, conditions: Table S3, counterscreen; negative = inhibition

Row | Efficacy (%) (counterscreen) | Structure (SMILES)
39 | -150 | CO[C@@H]1C(N(C)C(=O)c2ccccc2)C[C@H]2O[C@]1(C)n1c3ccccc3c3c4c(c5c6ccccc6n2c5c31)C(=O)NC4=O (stereo partly drawn) [NCGC00345083-01]
40 | -91 | Nc1cccc2c1C(=O)N(C1CCC(=O)NC1=O)C2=O (stereo not drawn) [NCGC00346551-01]
41 | -108 | CN1CCCN(C(=O)c2cccc(-c3ccc(/C=C4/C(=O)Nc5ccc(Cl)cc54)o3)c2)CC1 [NCGC00346935-01]

Row | Structure (SMILES) | Efficacy (%) (counterscreen)
42 | O=C(O)C(F)(F)F.O=S(=O)(Nc1ccc(N2CCNCC2)cc1)c1ccc(NCc2ccc(Br)cc2O)cc1 [NCGC00343874-01] | -58
43 | CCCCCCCCn1cc(CC(N)=O)c2cc(-c3cccc(C)c3)ccc21.O=C(O)C(F)(F)F [NCGC00348156-02] | -121

same assay, conditions: Table S3, counterscreen; read-out: IC50 [μM] (counterscreen)

Row | IC50 [µM] | Structure (SMILES)
44 | 22.4 | CO[C@@H]1C(N(C)C(=O)c2ccccc2)C[C@H]2O[C@]1(C)n1c3ccccc3c3c4c(c5c6ccccc6n2c5c31)C(=O)NC4=O (stereo partly drawn) [NCGC00345083-01]
45 | 44.7 | Nc1cccc2c1C(=O)N(C1CCC(=O)NC1=O)C2=O (stereo not drawn) [NCGC00346551-01]
46 | 35.5 | CN1CCCN(C(=O)c2cccc(-c3ccc(/C=C4/C(=O)Nc5ccc(Cl)cc54)o3)c2)CC1 [NCGC00346935-01]

Row | Structure (SMILES) | IC50 [µM]
47 | O=C(O)C(F)(F)F.O=S(=O)(Nc1ccc(N2CCNCC2)cc1)c1ccc(NCc2ccc(Br)cc2O)cc1 [NCGC00343874-01] | 44.7
48 | CCCCCCCCn1cc(CC(N)=O)c2cc(-c3cccc(C)c3)ccc21.O=C(O)C(F)(F)F [NCGC00348156-02] | 39.8
